Experimental data as given in patent US7060697B2, “Immunosuppressant compounds and compositions” (IRM LLC, priority 2003, dated 2006).

What was measured:
blood lymphocytes = assay: Measurement of circulating lymphocytes (blood lymphocyte depletion); format: in vivo, Rats (C57b1/6 male); conditions: Rattus norvegicus, oral gavage, blood collected 6 and 24 hours after administration, read-out: ED50 (effective dose required displaying 50% of blood lymphocyte depletion)
Protocol: C. In vivo: Screening Assays for Measurement of Blood Lymphocyte Depletion and Assessment of Heart Effect
Measurement of circulating lymphocytes: Compounds are dissolved in DMSO and diluted to obtain a final concentration of 4% DMSO (v/v, final concentration) and then further diluted in a constant volume of Tween80 25%/H2O, v/v. Tween80 25%/H2O (200 μl), 4% DMSO, and FTY720 (10 μg) are included as negative and positive controls, respectively. Rats (C57b1/6 male, 6–10 week-old) are administered 250–300 μL of compound solution orally by gavages under short isoflurane anesthesia.
Blood is collected from the retro-orbital sinus 6 and 24 hours after drug administration under short isoflurane anesthesia. Whole blood samples are subjected to hematology analysis. Peripheral lymphocyte counts are determined using an automated analyzer. Subpopulations of peripheral blood lymphocytes are stained by fluorochrome-conjugated specific antibodies and analyzed using a fluorescent activating cell sorter (Facscalibur). Two rats are used to assess the lymphocyte depletion activity of each compound screened. The result is an ED50, which is defined as the effective dose required displaying 50% of blood lymphocyte depletion.

human EDG-1 = target: T1, human EDG-1 (Homo sapiens, UniProt P21453); assay: GPCR activation assay measuring GTP [γ-35S] binding to membranes from CHO cells expressing human EDG receptors; format: biochemical
T1 construct: c-myc (N); expressed in transfected cells; homogenized membranes
T1 sequence (P21453 whole entry): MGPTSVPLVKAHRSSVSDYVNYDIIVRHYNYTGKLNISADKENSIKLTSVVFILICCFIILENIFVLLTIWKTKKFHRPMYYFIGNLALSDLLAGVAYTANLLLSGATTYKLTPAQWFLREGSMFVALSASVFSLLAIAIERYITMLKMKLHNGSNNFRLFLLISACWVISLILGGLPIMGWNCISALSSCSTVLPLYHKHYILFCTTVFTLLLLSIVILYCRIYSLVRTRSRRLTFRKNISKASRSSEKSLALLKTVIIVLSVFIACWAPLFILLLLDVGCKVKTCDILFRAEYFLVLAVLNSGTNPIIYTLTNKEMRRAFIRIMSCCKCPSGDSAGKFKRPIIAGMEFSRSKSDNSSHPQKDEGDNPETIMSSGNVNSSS
Protocol: A. In vitro: GPCR Activation Assay Measuring GTP [γ-^35S] Binding to Membranes Prepared from CHO Cells Expressing Human EDG Receptors
EDG-1 (S1P1) GTP [γ-^35S] binding assay: Homogenized membranes are prepared from CHO cell clones stably expressing a human EDG-1 N-terminal c-myc tag. Cells are grown in suspension in two 850 cm^2 roller bottles for three or fours days before harvesting. The cells are centrifuged down, washed once with cold PBS, and resuspended in ≦20 ml of Buffer A (20 mM HEPES, pH 7.4, 10 mM EDTA, EDTA-free complete protease inhibitor cocktail [1 tablet/25 ml]). The cell suspension is homogenized on ice, using a Polytron homogenizer at 30000 rpm at three intervals of 15 seconds each. The homogenate is first centrifuged at 2000 rpm on a tabletop low speed centrifuge for 10 minutes. The supernatant, after passing through a cell strainer, is then re-centrifuged at 50,000×g for 25 minutes at 4° C. The pellet is resuspended into buffer B (15% glycerol, 20 mM HEPES, pH 7.4, 0.1 mM EDTA, EDTA-free complete protease inhibitor cocktail [1 tablet/10 ml]). Protein concentration of the prep is determined using the BCA Protein Assay kit (Pierce) using BSA as standard. The membranes are aliquoted and kept frozen at −80° C.
Solutions of test compounds ranging from 10 mM to 0.01 nM are prepared in DMSO. S1P is diluted in 4% BSA solution as positive controls. […]

EC50 (human EDG-1; EDG-1 (S1P1) GTP [γ-35S] binding, CHO cell membranes): 0.82 nM | selectivity for EDG-1 compared to one or more of the other receptors including EDG-3, EDG-5, EDG-6 and EDG-8 (human EDG-1; GTP [γ-35S] binding assays): at least 1000 fold
Compound: O=C(O)C1CN(Cc2ccc(SCc3ccc(-c4ccccc4)c(C(F)(F)F)c3)cc2)C1 [Compound 9, 1-[4-(2-trifluoromethyl-biphenyl-4-ylmethylsulfanyl)-benzyl]-azetidine-3-carboxylic acid]
ED50 (blood lymphocytes): < 0.1 mg/kg
